Source: patent publication US8580802B2, “Pyrrolo[2,3-D]pyrimidines as inhibitors of Janus kinases” (Vertex Pharmaceuticals Incorporated, priority 2005, dated 2013)

Tests used:
[1] = target: JAK2 (Homo sapiens, UniProt O60674); assay: JAK2 Inhibition Assay; format: biochemical; conditions: JAK-2 enzyme, 15 μM poly(Glu)4Tyr, 12 μM ATP
Experimental: (§1) Compounds were screened for their ability to inhibit JAK3 using the assay shown below. Reactions were carried out in a kinase buffer containing 100 mM HEPES (pH 7.4), 1 mM DTT, 10 mM MgCl2, 25 mM NaCl, and 0.01% BSA. Substrate concentrations in the assay were 5 μM ATP (200 uCi/μmole ATP) and 1 μM poly(Glu)4Tyr. Reactions were carried out 25° C. and 1 nM JAK3.
(§2) To each well of a 96 well polycarbonate plate was added 1.5 μl of a candidate JAK3 inhibitor along with 50 μl of kinase buffer containing 2 μM poly(Glu)4Tyr and 10 μM ATP. This was then mixed and 50 μl of kinase buffer containing 2 nM JAK3 enzyme was added to start the reaction. After 20 minutes at room temperature (25° C.), the reaction was stopped with 50 μl of 20% trichloroacetic acid (TCA) that also contained 0.4 mM ATP. The entire contents of each well were then transferred to a 96 well glass fiber filter plate using a TomTek Cell Harvester. After washing, 60 μl of scintillation fluid was added and ^33P incorporation detected on a Perkin Elmer TopCount.
The assays were as described above in Example 36 except that JAK-2 enzyme was used, the final poly(Glu)4Tyr concentration was 15 μM, and final ATP concentration was 12 μM.

[2] = target: T1, JAK3 (Homo sapiens, UniProt P52333); assay: JAK3 Inhibition Assay; format: biochemical; conditions: 1 nM JAK3, 1 μM poly(Glu)4Tyr, 5 μM ATP, 25° C.; read-out: enzyme inhibition data (Ki) JAK3
T1 sequence (P52333 1-1124): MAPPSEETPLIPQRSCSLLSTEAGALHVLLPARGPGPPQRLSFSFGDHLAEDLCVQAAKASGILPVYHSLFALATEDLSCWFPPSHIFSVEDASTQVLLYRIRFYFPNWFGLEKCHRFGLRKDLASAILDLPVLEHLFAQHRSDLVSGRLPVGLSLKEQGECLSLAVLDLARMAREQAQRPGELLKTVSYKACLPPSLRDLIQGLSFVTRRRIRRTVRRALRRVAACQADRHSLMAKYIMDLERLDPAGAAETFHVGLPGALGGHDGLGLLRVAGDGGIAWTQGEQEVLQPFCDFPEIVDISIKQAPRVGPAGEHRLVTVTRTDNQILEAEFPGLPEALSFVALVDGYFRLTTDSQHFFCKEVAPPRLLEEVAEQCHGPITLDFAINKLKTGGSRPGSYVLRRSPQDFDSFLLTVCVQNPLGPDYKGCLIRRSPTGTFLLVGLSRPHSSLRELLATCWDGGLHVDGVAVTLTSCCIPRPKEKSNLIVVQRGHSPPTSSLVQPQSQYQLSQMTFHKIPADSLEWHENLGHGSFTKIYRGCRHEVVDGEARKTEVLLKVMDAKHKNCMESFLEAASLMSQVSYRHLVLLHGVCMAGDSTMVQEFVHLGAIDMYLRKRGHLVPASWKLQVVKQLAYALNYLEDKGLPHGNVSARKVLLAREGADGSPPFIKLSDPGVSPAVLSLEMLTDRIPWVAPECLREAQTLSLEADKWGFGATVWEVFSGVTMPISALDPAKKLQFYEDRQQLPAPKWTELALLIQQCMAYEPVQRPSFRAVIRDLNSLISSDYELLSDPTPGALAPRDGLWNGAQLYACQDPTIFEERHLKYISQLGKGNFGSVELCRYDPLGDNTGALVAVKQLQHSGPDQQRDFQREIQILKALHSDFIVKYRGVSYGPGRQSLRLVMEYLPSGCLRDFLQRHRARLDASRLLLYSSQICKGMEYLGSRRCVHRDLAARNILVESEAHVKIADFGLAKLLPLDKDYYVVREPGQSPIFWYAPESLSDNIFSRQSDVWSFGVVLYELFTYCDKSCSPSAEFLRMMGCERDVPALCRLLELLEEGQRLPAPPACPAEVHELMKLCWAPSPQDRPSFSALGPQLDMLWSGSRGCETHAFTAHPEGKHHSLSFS
Experimental: as §1, §2

JAK2, sequence (O60674 whole entry): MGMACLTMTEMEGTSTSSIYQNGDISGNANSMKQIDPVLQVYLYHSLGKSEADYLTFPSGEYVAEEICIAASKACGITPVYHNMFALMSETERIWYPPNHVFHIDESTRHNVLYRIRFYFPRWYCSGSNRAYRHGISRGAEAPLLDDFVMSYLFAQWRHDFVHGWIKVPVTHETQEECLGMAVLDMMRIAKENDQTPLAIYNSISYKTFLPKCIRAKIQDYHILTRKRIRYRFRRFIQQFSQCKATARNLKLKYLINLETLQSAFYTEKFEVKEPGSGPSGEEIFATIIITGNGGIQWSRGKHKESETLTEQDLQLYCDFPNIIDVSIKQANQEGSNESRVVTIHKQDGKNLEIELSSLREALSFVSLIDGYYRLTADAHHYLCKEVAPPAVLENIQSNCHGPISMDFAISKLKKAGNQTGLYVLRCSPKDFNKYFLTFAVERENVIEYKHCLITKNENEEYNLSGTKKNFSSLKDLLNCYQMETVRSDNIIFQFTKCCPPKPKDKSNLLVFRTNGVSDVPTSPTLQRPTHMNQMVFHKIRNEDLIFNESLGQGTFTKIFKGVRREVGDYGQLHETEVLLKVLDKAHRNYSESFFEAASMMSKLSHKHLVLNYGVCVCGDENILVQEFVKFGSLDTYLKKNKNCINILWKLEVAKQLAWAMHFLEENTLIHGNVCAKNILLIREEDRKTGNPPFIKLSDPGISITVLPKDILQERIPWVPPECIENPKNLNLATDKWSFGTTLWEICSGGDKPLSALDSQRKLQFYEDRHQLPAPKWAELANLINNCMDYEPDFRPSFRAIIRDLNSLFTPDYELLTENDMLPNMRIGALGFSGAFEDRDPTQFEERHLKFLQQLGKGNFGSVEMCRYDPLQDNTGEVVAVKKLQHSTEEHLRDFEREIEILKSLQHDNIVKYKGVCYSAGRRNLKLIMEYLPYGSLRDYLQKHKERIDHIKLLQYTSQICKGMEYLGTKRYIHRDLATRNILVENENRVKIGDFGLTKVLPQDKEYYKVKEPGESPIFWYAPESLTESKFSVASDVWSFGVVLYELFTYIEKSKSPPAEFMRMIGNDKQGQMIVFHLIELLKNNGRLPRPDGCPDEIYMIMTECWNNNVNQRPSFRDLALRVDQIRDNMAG

Row | Ki [1] | Ki [2] | SMILES
1 | 500 to 5000 nM | < 500 nM | CN(c1nc(-c2c[nH]c3ncncc23)ncc1F)C(C(=O)NCC(F)(F)F)c1ccccc1 (centres unmarked) [Compound 100]
2 | 500 to 5000 nM | 500 to 5000 nM | CCNC(=O)C(CC(F)(F)F)Nc1nc(-c2c[nH]c3ncncc23)ncc1F (centres unmarked) [Compound 44, 2-(5-fluoro-2-(7H-pyrrolo[2,3-d]pyrimidin-5-yl)pyrimidin-4-ylamino)-N-ethyl-4,4,4-trifluorobutanamide]
3 | 500 to 5000 nM | < 500 nM | C[C@@H](Nc1ccnc(-c2c[nH]c3ncncc23)n1)C(=O)N(C)CC(F)(F)F [Compound 103]
4 | 500 to 5000 nM | < 500 nM | O=C(NCC(F)(F)F)[C@@H]1CCCCN1c1ccnc(-c2c[nH]c3ncncc23)n1 [Compound 61]
5 | < 500 nM | < 500 nM | CC(C)(Nc1nc(-c2c[nH]c3ncncc23)nc2ccccc12)C(=O)NCC(F)(F)F [Compound 105]
6 | < 500 nM | < 500 nM | C[C@H](c1ccccc1)N(C)c1ccnc(-c2c[nH]c3ncncc23)n1 [Compound 85]
7 | 500 to 5000 nM | 500 to 5000 nM | Fc1cnc(-c2c[nH]c3ncncc23)nc1N1CCCC1 [Compound 24, 5-(5-fluoro-4-(pyrrolidin-1-yl)pyrimidin-2-yl)-7H-pyrrolo[2,3-d]pyrimidine]
8 | 500 to 5000 nM | < 500 nM | CN(c1nc(-c2c[nH]c3ncncc23)ncc1F)C1(C(=O)NCC(F)(F)F)CC1 [Compound 99]
9 | < 500 nM | < 500 nM | CC(C)(Nc1nc(-c2c[nH]c3ncncc23)ncc1F)C(=O)NCC(F)F [Compound 107]
10 | < 500 nM | < 500 nM | N#CCC(=O)N1CC=C(c2cccc(-c3c[nH]c4ncncc34)n2)CC1 [Compound 30, 3-(4-(6-(7H-pyrrolo[2,3-d]pyrimidin-5-yl)pyridin-2-yl)-5,6-dihydropyridin-1(2H)-yl)-3-oxopropanenitrile]
11 | > 5000 nM | 500 to 5000 nM | O=C(NCC(F)(F)F)[C@@H]1C[C@@H](F)CN1c1nc(-c2c[nH]c3ncncc23)ncc1F [Compound 53]
12 | < 500 nM | < 500 nM | CC(C)[C@@](C)(Nc1nc(-c2c[nH]c3ncncc23)ncc1F)C(=O)NCC(F)(F)F [Compound 65]
13 | < 500 nM | < 500 nM | C[C@H](Nc1ccnc(-c2c[nH]c3ncncc23)n1)c1ccc(F)cc1 [Compound 84]
14 | > 5000 nM | > 5000 nM | C[C@H](Nc1nc(-c2c[nH]c3ncncc23)nc(N2CCOCC2)n1)C(=O)NCC(F)(F)F [Compound 37, (S)-2-(4-morpholino-6-(7H-pyrrolo[2,3-d]pyrimidin-5-yl)-1,3,5-triazin-2-ylamino)-N-(2,2,2-trifluoroethyl)propanamide]
15 | < 500 nM | < 500 nM | O=C(NCC(F)(F)F)[C@H]1CCCN1c1nc(-c2c[nH]c3ncncc23)ncc1F [Compound 27]
16 | 500 to 5000 nM | < 500 nM | O=C(NCC(F)(F)F)[C@H]1C[C@H](O)CN1c1nc(-c2c[nH]c3ncncc23)ncc1F [Compound 93]
17 | 500 to 5000 nM | 500 to 5000 nM | OC[C@@H]1CCCN1c1nc(-c2c[nH]c3ncncc23)ncc1F [Compound 21, ((S)-1-(5-fluoro-2-(7H-pyrrolo[2,3-d]pyrimidin-5-yl)pyrimidin-4-yl)pyrrolidin-2-yl)methanol]
18 | < 500 nM | < 500 nM | O=C(NCC(F)(F)F)C1(Nc2ccnc(-c3c[nH]c4ncncc34)n2)CCCC1 [Compound 98]
19 | < 500 nM | < 500 nM | CC[C@](C)(Nc1ccnc(-c2c[nH]c3ncncc23)n1)C(=O)NCC(F)(F)F [Compound 88]
20 | 500 to 5000 nM | < 500 nM | C[C@H](Nc1cc(C(=O)N2CCCC2)nc(-c2c[nH]c3ncncc23)n1)C(=O)NCC(F)(F)F [Compound 9]
21 | < 500 nM | < 500 nM | C[C@@H](Nc1nc(-c2c[nH]c3ncncc23)nc2ccccc12)C(=O)NCC(F)(F)F [Compound 38]
22 | < 500 nM | < 500 nM | O=C(CCNc1ccnc(-c2c[nH]c3ncncc23)n1)NCC(F)(F)F [Compound 82]
